{"source": "patent US20260076959A1", "about": "“COMBINATION PRODUCT, SALT, AND USE THEREOF IN TREATING NEURODEGENERATIVE DISEASES OR DISORDERS” (SHANGHAI HENLIUS BIOTECH, INC., priority 2023, published 2026)", "key": {"ALS": {"tested_on": "ALS", "settings": "in vivo; cited from earlier work"}, "[1]": {"tested_on": "MPTP-induced Parkinson's disease mouse model", "assay": "MPTP-induced Parkinson's disease mouse model (grip strength, rotarod, TH immunohistochemistry)", "type": "in vivo, C57BL/6 mice", "settings": "for reduction in TH-positive cells in the substantia nigra region: P<0.0001", "description": "Sixty male C57BL/6 mice were selected and randomly divided into 5 groups (12 mice/group), namely a sham surgery group (normal control), a model group (model control), an L-DOPA group (positive drug control, 40 mg/kg), a low-dose YT salt treatment group (167.5 mg/kg), and a high-dose YT salt treatment group (248 mg/kg). The mice were intraperitoneally injected with MPTP at a dose of 30 mg/kg for 5 consecutive days for modeling. The YT salt was intragastrically administered twice daily (with an interval of 7-8 h between two administrations) for 13 consecutive days. L-DOPA was administered twice daily (with an interval of 7-8 h between two administrations) for 8 consecutive days. The amelioration effect of the YT salt on the motor function of the MPTP-induced Parkinson's disease mice was evaluated by behavioral indicators such as a grip strength test and a rotarod test. Histopathological examination was performed on the animals to evaluate the protective effect of the YT salt on dopaminergic neurons in the MPTP-induced Parkinson's disease mice."}, "CD4-positive T cells": {"tested_on": "CD4-positive T cells", "assay": "Proliferation of CD4-positive T cells from anti-CD3/CD28-stimulated PBMCs (CellTrace, flow cytometry)", "type": "cell-based, human", "settings": "72 h; for proliferation of CD4-positive T cells compared to control group (DMSO): 100 μM (Y+T: 100 μM+100 μM)", "text": "(§1) It has been reported that in ALS, Th cells are described as major players in inflammation and disease progression. […] Similarly, CD8 T cell infiltration was also observed in the spinal cord and brain of ALS patients. (Elise Liu, et al., Neuroinflammation in Amyotrophic Lateral Sclerosis and Frontotemporal Dementia and the Interest of Induced Pluripotent Stem Cells to Study Immune Cells Interactions With Neurons, Front Mol Neurosci. 2021 Dec. 14; 14:767041. doi: 10.3389/fnmol.2021.767041.) To observe the inhibitory effects of the compounds, the compound combination, or the salt of the present disclosure on immune cell infiltration or proliferation, their effects in inhibiting the proliferation of CD4-positive and CD8-positive T cells were further analyzed. First, a certain amount of human peripheral blood mononuclear cells (PBMCs) were incubated with 5 μM CellTrace cell proliferation assay reagent in an incubator at 37° C. with 5% CO2 in the dark for 20 min. Then, 1.5×10^5 CellTrace-stained PBMCs were seeded in a 96-well U-bottom plate and treated with Anti-CD3/CD28 antibody-coupled magnetic beads at a ratio of 1:1 (cell count:magnetic bead count) to induce differentiation into T cells. Subsequently, various compounds at corresponding concentrations (compound Y: 100 μM; compound T: 100 μM; compound combination Y+T: 100 µM compound Y+100 μM compound T; YT salt: 100 μM; control group: […] (100 μM)) were co-incubated with the above-treated cells in the incubator at 37° C. with 5% CO2 for 72 h, followed by analysis by a flow cytometer. Specifically, the test cells were first treated with a Live/dead dye (633 nm, 1:1000 dilution) at 4° C. for 30 min to distinguish dead cells from live cells. […] After appropriate washing, the above-stained cells were analyzed by a flow cytometer at different wavelengths. […] Proliferation of CD4-positive and CD8-positive T cells was determined by the fluorescence of CellTrace dye."}, "SH-sy5y cells": {"tested_on": "SH-sy5y cells", "assay": "Cell viability of hydrogen peroxide-induced SH-sy5y cells (CellTiter-Glo luminescence)", "type": "cell-based", "description": "Neuroblastoma SH-sy5y cells (purchased from the Cell Bank of the Chinese Academy of Sciences) were cultured in a complete medium (DMEM+10% FBS+1% PS) in a cell incubator at 37° C. with 5% CO2. The experiment was divided into 11 groups in total: • Group 1 (control): SH-sy5y cells • Group 2 (model): SH-sy5y cells+hydrogen peroxide • Group 3: SH-sy5y cells+hydrogen peroxide+compound Y (100 μM) • Group 4: SH-sy5y cells+hydrogen peroxide+compound T (100 μM) • Group 5: SH-sy5y cells+hydrogen peroxide+compound B (100 μM) • Group 6: SH-sy5y cells+hydrogen peroxide+compound N (100 μM) • Group 7: SH-sy5y cells+hydrogen peroxide+compound combination Y+T (100 μM+100 μM) • Group 8: SH-sy5y cells+hydrogen peroxide+compound combination B+N (100 μM+100 μM) • Group 9: SH-sy5y cells+hydrogen peroxide+compound combination PB+T (500 μM+200 μM) • Group 10: SH-sy5y cells+hydrogen peroxide+YT salt (100 μM) • Group 11: SH-sy5y cells+DMSO\nNeuroblastoma SH-sy5y cells were plated at 1×10^4 cells/well in a complete medium (DMEM+10% FBS+1% PS) and cultured in a cell incubator at 37° C. with 5% CO2 for 24 h, followed by the addition of the corresponding compounds. After 24 h of incubation, hydrogen peroxide was added to stimulate the cells for 1 h, with the final concentration of hydrogen peroxide being 350 µM. Subsequently, […] CellTiter-Glo® (CTG) reagent was added, and the mixture was shaken for 2 min. Then, the luminescence signal values were measured, which could characterize the cell viability. […] Pharmacology/toxicologyNDAreviewandevaluation, Application number: 2166600Orig1s000, Food and Drug Administration. doi: pink.pharmaintelligence.informa.com/-/media/supporting-documents/pink-sheet/2022/11/relyvrio_nonclinical.pdf?rev=d27109bf35c040d4a78f73144d132917&hash=414BB5B4473A21ECE0231375EB1C0341)."}, "[2]": {"tested_on": "SOD1G93A mutant ALS model mice", "assay": "Onset of disease, severe conditions and survival in SOD1G93A ALS mouse model", "type": "in vivo", "description": "The therapeutic effect of the YT salt on the survival status of ALS animals was evaluated in SOD1^G93A transgenic mice (B6SJL-Tg (SOD1*G93A) 1/cyagen). Sixteen female and fourteen male B6SJL-Tg(SOD1*G93A) 1/cyagen mice were selected and randomly divided into 2 groups (7 males+8 females/group) according to sex and body weight, namely a model group (control) and a YT salt group (treatment group). The YT salt was intragastrically administered at a dose of 496 mg/kg once daily. The administration began on day 66 of mouse age. Body weight changes were monitored, animal status and symptom severity were evaluated, and individual survival periods were recorded. Statistics on the severity of animal symptoms included the time to the first onset of disease and the time to the first observation of severe conditions in the animals. […] In this study, “severe condition” was defined as a state in which the animal was completely paralyzed and unable to move freely, but still alive; if the animal died directly without going through a “paralysis” stage after the onset of disease, the death was considered the occurrence of a severe condition. The survival period was statistically defined as the survival time of the animal at the endpoint of the test (day 130). The hazard ratio was calculated using the Log-rank test method."}, "CD8-positive T cells": {"tested_on": "CD8-positive T cells", "assay": "Proliferation of CD8-positive T cells from anti-CD3/CD28-stimulated PBMCs (CellTrace, flow cytometry)", "type": "cell-based, human", "settings": "72 h; for proliferation of CD8-positive T cells compared to control group (DMSO): 100 μM (Y+T: 100 μM+100 μM)", "text": "as §1"}, "[3]": {"tested_on": "6-OHDA-induced Parkinson's disease rats", "assay": "6-OHDA-induced Parkinson's disease rat model (grid walking test)", "type": "in vivo, SD rats", "settings": "248 mg/kg intragastrically once daily, 6 weeks; P<0.05 vs model", "description": "Forty-eight male SD rats were selected and divided into 4 groups (12 rats/group), namely a sham surgery group (normal control), a model group (model control), an istradefylline group (istradefylline, as a positive drug control, 10 mg/kg), and a YT salt treatment group (248 mg/kg). The Parkinson's disease model was established by injecting […] of 6-OHDA into the right intracranial medial forebrain bundle (MFB) of rats. After modeling, istradefylline and the YT salt were administered intragastrically once daily for 6 consecutive weeks, and a grid walking test was performed at the end of the 6-week administration period to evaluate the disease progression in the rats."}, "[4]": {"settings": "496 mg/kg intragastrically once daily"}}, "note": "Counter-ions that a name gives are not always drawn.", "data": [{"smiles": "CC1=NN(c2ccccc2)C(=O)C1", "note": "[Evadarone]", "values": [{"measurement": "revised ALS functional rating scale (ALSFRS-R) score", "setting": "ALS", "value": "improves"}]}, {"smiles": "N[C@@H](Cc1ccc(O)c(O)c1)C(=O)O", "note": "[L-DOPA, reference compound]", "values": [{"measurement": "MPTP-induced decrease in animal grip strength", "setting": "[1]; L-DOPA 40 mg/kg twice daily, 8 days, P<0.001 vs model", "value": "significantly ameliorate"}, {"measurement": "reduction in TH-positive cells in the substantia nigra region", "setting": "[1]; L-DOPA 40 mg/kg twice daily", "value": "significant inhibition"}]}, {"smiles": "COc1cc2cc3[n+](cc2cc1OC)CCc1cc2c(cc1-3)OCO2", "note": "[YT salt]", "values": [{"measurement": "apoptosis of dopaminergic neurons in the substantia nigra region and striatal region", "setting": "[1]; YT salt 167.5 mg/kg twice daily", "value": "significantly inhibit"}, {"measurement": "MPTP-induced decrease in animal grip strength", "setting": "[1]; YT salt high dose 248 mg/kg intragastrically twice daily, 13 days, P<0.01 vs model", "value": "significantly ameliorate"}, {"measurement": "reduction in TH-positive cells in the substantia nigra region", "setting": "[1]; YT salt high dose 248 mg/kg twice daily", "value": "significant inhibition"}, {"measurement": "loss of TH-positive neurons (TH immunohistochemical staining in the striatum)", "setting": "[1]; YT salt high dose 248 mg/kg twice daily, P<0.01", "value": "significant inhibition"}, {"measurement": "MPTP-induced reduction in time on the rod (rotarod test)", "setting": "[1]; YT salt high dose 248 mg/kg twice daily, P<0.05 vs model", "value": "significant amelioration effect"}, {"measurement": "reduction in TH-positive cells in the substantia nigra region", "setting": "[1]; YT salt low dose 167.5 mg/kg twice daily", "value": "significant inhibition"}, {"measurement": "proliferation of CD4-positive T cells compared to control group (DMSO)", "setting": "CD4-positive T cells", "value": "significantly inhibited"}, {"measurement": "inhibitory effect on proliferation of CD4-positive T cells compared to compound T and compound U (UDCA)", "setting": "CD4-positive T cells; 100 μM", "value": "significantly superior"}, {"measurement": "effects in improving cell viability compared to compound T, compound B, combination B+N and combination PB+T", "setting": "SH-sy5y cells; Y+T 100 μM+100 μM, YT salt 100 μM, hydrogen peroxide-induced", "value": "significantly superior effects in improving cell viability"}, {"measurement": "median onset time", "setting": "[2]; [4]", "value": 109, "unit": "days"}, {"measurement": "median time to severe condition occurrence", "setting": "[2]; [4]", "value": 117, "unit": "days"}, {"measurement": "onset time (earliest onset in group)", "setting": "[2]; [4]", "value": "> 90 days of mouse age"}, {"measurement": "time of first onset vs model group (Log-rank)", "setting": "[2]; 496 mg/kg intragastrically once daily from day 66 of age, P=0.0802", "value": "no statistical difference"}, {"measurement": "hazard ratio for disease onset", "setting": "[2]; 496 mg/kg intragastrically once daily, Log-rank", "value": 0.5716}, {"measurement": "survival period vs model group", "setting": "[2]; 496 mg/kg intragastrically once daily, P<0.01", "value": "significantly superior"}, {"measurement": "incidence of severe conditions vs model group", "setting": "[2]; 496 mg/kg intragastrically once daily, P<0.05", "value": "significantly lower"}, {"measurement": "median onset time longer than in the model group", "setting": "[2]; 496 mg/kg intragastrically once daily, model group 102 days", "value": 7, "unit": "days"}, {"measurement": "death hazard ratio", "setting": "[2]; 496 mg/kg, Log-rank", "value": 0.3212}, {"measurement": "hazard ratio for severe conditions", "setting": "[2]; 496 mg/kg, Log-rank", "value": 0.45}, {"measurement": "endpoint survival rate", "setting": "[2]; 496 mg/kg, endpoint day 130", "value": 53.333, "unit": "%"}, {"measurement": "median survival period", "setting": "[2]; 496 mg/kg, endpoint day 130", "value": "the number of dead individuals had not exceeded half by the endpoint of the test"}, {"measurement": "endpoint severe condition rate", "setting": "[2]; 496 mg/kg, endpoint of the test day 130", "value": 66.667, "unit": "%"}, {"measurement": "hazard ratio for disease onset, times lower than model group", "setting": "[2]; 496 mg/kg, model group 1.749", "value": "about 3 times"}, {"measurement": "hazard ratio for severe conditions, times lower than model group", "setting": "[2]; 496 mg/kg, model group 2.222", "value": "about 5 times"}, {"measurement": "death hazard ratio, times lower than model group", "setting": "[2]; 496 mg/kg, model group 3.113", "value": "~10", "unit": "times"}, {"measurement": "median time to severe condition occurrence longer than in the model control group", "setting": "[2]; 496 mg/kg, model group 109 days", "value": "about 8 days"}, {"measurement": "proliferation of CD8-positive T cells compared to control group (DMSO)", "setting": "CD8-positive T cells", "value": "significantly inhibited"}, {"measurement": "inhibitory effect on proliferation of CD8-positive T cells compared to compound T and compound U (UDCA)", "setting": "CD8-positive T cells; 100 μM", "value": "significantly superior"}, {"measurement": "foot fault rate in grid walking test", "setting": "[3]", "value": "significant reduction"}, {"measurement": "number of foot faults in grid walking test", "setting": "[3]", "value": "significant reduction"}]}, {"smiles": "COc1cc2cc3[n+](cc2cc1OC)CCc1cc2c(cc1-3)OCO2.[Cl-]", "note": "[compound Y]", "values": [{"measurement": "proliferation of CD4-positive T cells compared to control group (DMSO)", "setting": "CD4-positive T cells", "value": "significantly inhibited"}, {"measurement": "effect in improving cell viability compared to compound B monotherapy", "setting": "SH-sy5y cells; 100 μM each, hydrogen peroxide-induced", "value": "superior"}, {"measurement": "effect in improving cell viability compared to the model", "setting": "SH-sy5y cells; 100 μM, 24 h incubation, then hydrogen peroxide 1 h, P<0.0001 vs model", "value": "excellent effect in improving cell viability"}, {"measurement": "proliferation of CD8-positive T cells compared to control group (DMSO)", "setting": "CD8-positive T cells", "value": "significantly inhibited"}]}]}
